Experimental data from publication PMC6694155, “PTPσ inhibitors promote hematopoietic stem cell regeneration” (Nature Communications, 2019).
“And” between values parts separate entries of the source, which are not always exact repeats. Equal values may be shown once.

What was measured:
[1] = target: T1, PTPβ (Protein Tyrosine Phosphatase Receptor beta) (Homo sapiens, UniProt P23467); assay: PhosphataseProfiler screen: PTPβ; assay type: biochemical; conditions: replicates
T1 construct: purchased Eurofins Pharma Discovery Services UK
T1 sequence (P23467 23-1997): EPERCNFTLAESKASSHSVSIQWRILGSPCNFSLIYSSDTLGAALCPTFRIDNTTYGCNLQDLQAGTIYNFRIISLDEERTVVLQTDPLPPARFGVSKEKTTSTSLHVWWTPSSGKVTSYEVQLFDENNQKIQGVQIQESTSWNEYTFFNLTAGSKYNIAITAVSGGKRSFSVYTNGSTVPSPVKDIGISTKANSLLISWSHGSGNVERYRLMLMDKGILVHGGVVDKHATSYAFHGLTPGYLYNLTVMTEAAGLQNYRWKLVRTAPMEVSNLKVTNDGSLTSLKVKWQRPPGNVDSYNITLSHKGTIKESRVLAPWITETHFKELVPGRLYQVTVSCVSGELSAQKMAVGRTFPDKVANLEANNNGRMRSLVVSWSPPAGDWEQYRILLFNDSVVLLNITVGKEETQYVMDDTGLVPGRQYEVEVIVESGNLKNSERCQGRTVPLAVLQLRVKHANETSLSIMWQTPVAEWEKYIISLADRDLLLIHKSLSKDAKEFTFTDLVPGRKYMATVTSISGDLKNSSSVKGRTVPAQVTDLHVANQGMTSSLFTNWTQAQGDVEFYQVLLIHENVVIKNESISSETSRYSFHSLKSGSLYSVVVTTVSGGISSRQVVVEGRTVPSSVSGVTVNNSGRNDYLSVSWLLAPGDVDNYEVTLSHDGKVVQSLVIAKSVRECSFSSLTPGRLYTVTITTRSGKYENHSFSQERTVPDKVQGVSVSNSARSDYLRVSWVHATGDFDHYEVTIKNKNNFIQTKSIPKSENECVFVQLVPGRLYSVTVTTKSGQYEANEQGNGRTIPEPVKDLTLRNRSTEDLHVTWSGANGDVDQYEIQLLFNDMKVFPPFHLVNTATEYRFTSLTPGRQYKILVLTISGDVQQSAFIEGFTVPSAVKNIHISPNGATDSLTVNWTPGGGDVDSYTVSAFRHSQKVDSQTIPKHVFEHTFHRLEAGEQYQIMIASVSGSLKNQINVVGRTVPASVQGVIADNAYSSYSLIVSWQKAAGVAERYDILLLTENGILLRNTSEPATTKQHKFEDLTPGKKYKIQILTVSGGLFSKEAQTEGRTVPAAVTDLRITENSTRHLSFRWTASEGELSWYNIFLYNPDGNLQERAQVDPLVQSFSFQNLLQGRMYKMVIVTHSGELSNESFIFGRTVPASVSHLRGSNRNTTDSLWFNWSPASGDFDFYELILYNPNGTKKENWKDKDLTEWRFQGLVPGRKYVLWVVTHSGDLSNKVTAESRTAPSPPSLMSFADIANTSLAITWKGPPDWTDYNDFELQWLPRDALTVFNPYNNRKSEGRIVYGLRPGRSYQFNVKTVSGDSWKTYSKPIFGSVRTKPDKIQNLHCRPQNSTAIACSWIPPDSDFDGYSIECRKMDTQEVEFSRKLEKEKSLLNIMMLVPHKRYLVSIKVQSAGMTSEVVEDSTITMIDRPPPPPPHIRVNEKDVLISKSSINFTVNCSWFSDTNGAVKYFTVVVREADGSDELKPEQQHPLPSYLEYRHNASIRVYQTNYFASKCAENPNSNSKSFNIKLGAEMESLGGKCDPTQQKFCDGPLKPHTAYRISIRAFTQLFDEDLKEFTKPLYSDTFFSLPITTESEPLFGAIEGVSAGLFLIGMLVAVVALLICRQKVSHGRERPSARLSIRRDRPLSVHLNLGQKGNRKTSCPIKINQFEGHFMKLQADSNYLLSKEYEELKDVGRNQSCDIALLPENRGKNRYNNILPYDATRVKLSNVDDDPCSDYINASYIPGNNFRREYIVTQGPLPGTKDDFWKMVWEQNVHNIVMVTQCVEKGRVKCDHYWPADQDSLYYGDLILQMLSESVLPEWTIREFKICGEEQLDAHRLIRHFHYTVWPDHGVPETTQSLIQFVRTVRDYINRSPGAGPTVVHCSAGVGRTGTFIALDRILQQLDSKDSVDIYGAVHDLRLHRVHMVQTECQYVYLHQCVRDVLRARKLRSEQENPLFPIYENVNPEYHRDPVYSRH
Procedure: Compound DJ001 was evaluated in a PhosphataseProfiler™ screen at 10 μM and 1 μM (2.7 μg/mL and 0.27 μg/mL) concentrations at Eurofins Pharma Discovery Services UK (Study number UK022-0004033) against a panel of 21 Phosphatases. In each experiment, the respective reference antagonist/agonist was tested directly with DJ001 and the data were compared with historical values determined at Eurofins. DJ001 compound inhibition was calculated as percentage inhibition of the enzymatic activity compared with control.

p250GAP in BM lin− cells = assay: p250GAP phospho-tyrosine sandwich ELISA; assay type: cell-based, mouse
Procedure: Clear, pre-blocked Protein A-coated Microtiter wells (Fisher Scientific, #15132) were incubated with ARHGAP32 polyclonal antibody (Bioss, #bs-9296R, 1:500) in antibody dilution buffer (150 mM NaCl, 25 mM HEPES pH 7.2, 0.5% bovine serum albumin, 0.05% Tween 20) for 3 h at room temperature (RT). Subsequently, the plate was washed three times and phosphorylated p250GAP from BM lin^− cell lysate was added to each well. BM lin^− cells were collected in NP40 buffer (ThermoFisher Scientific; FNN0021) supplemented with 1× complete, Mini, EDTA-free Protease Inhibitor Cocktail (Sigma Aldrich; 4693159001) and 1× PhosSTOP (Sigma Aldrich; 4906845001). Following incubation for 2 h at 4 °C, the plate was completely emptied (without washing) and exposed to 50 μL of a fixation solution (0.5% formaldehyde in 300 mM NaCl, 20 mM sodium phosphate buffer, pH 7) for 10 min. The plate-bound, phosphorylated p250GAP was measured by a specific anti-phospho-tyrosine peroxidase-coupled antibody (Sigma Aldrich, #A5964-1VL, 1:500) in antibody dilution buffer. Incubation was for 1 h at RT. Peroxidase activity was measured by a Tecan Infinity plate reader using BM Chemiluminescence ELISA Substrate (Sigma Aldrich, #11582950001).

PTPσ = target: T2, PTPσ (Mus musculus, UniProt B0V2N1); assay: Substrate titration of PTPσ (Km, Vmax, mechanism of inhibition); assay type: biochemical
T2 sequence (B0V2N1 1326-1907): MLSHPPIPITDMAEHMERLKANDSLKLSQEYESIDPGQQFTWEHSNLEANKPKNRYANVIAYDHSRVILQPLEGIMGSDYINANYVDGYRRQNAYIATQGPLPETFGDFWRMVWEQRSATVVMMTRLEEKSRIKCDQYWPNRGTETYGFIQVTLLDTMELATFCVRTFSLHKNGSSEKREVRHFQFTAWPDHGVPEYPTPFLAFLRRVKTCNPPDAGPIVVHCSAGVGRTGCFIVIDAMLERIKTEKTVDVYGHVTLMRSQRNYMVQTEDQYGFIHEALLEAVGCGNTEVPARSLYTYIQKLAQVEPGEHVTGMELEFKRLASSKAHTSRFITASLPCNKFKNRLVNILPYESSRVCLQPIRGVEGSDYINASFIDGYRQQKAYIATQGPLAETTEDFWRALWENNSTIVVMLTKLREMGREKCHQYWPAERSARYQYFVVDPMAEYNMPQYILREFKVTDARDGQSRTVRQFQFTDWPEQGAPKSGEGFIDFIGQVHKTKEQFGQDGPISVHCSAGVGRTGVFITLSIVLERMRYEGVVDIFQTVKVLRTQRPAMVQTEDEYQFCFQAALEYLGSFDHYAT
Procedure: The two intracellular catalytic domains (D1 and D2) of Ptprs were cloned into a pET28a vector, overexpressed in Escherichia coli BL21 and purified. Enzymatic activity of PTPσ was assayed using a modified version of the Malachite Green Assay[66] and the Tyrosine Phosphatase Assay Kit (Promega Corporation). Unless stated otherwise, standard assays were carried out using 50 nM PTPσ protein in 1× Buffer (10 mM Tris, 5 mM MgCl2, 10 mM NaCl, 0.02% Tween) and Tyr Phosphopeptide as substrate (200 μM for Fig. 1b, c, 50–1200 μM in Fig. 1c). Purified catalytic domain 1 and domain 2 of PTPσ were pre-incubated with test compounds 3071, 5205, 5075, or control for 15 min in a 96-well plate before the addition of Tyr Phosphopeptide (DADE(pY)LIPQQG). For IC50 determination, rates normalized relative to uninhibited controls (dimethyl sulfoxide (DMSO)) were plotted against compound concentration and fitted using a four-parameter nonlinear regression curve fit ((y = [(A − D) (1 + {xC − 1}B) − 1] + D) (Prism 6.0, Graphpad Software). For mechanism studies and determination of the enyzme’s Km and Vmax, data were analyzed using a nonlinear regression fit according to the classical Michaelis–Menten kinetics model, Y = Vmax*X/(Km + X) (Prism 6.0, Graphpad Software).

p-PAK1 in BM KSL cells = assay: p-PAK1 phospho-flow cytometry of BM KSL cells; assay type: cell-based, mouse
Procedure: Intracellular flow cytometric analysis was performed on irradiated (300 cGy) or non-irradiated, sorted KSL cells after treatment with 1 μg/mL DJ001 or control (equal volumes of DMSO) for 24 h. At 24 h after irradiation, cells were fixed with 4% PFA for 10 min, followed by permeabilization using 0.25% saponin in PBS. Cells were washed again and stained with antibody at the recommended concentrations for 30 min at RT. Intracellular antibodies and phospho-flow antibodies used were as follows: FITC-conjugated anti-BCL-XL (Abcam, #26148, 1:100), active RAC1-GTP antibody (NewEast Biosciences, #26903, 1:100) and anti-PAK1 (phospho S144) + PAK2 (phospho S141) + PAK3 (phospho S154) antibody (Abcam, #40795, 1:100), and FITC-conjugated goat anti-rabbit IgG H&L (Abcam, #97050, 1:200).

## O=C(/C=C\Nc1cccc([N+](=O)[O-])c1)c1ccccc1 [DJ001, (Z)-3-((3-nitrophenyl)amino)-1-phenylprop-2-en-1-one]
[1]; 2.7 μg/mL DJ001
  Supplementary Figure 1: PTP activity: 92 and 79 and 96
[1]; 0.27 g/mL DJ001
  Supplementary Figure 1: PTP activity: 98 and 91 and 84
p250GAP in BM lin− cells; 1 µg/mL DJ001
  phosphorylation of p250GAP: significantly increased phosphorylation of p250GAP
p250GAP in BM lin− cells; DJ001 vs media, individual replicates
  Figure 3a: p250GAP phosphorylation (phospho-tyrosine ELISA): 62.785 and 39.77 and 58.721 and 55.943 and 45.893 and 49.264 and 56.331
PTPσ; 25M DJ001, Substrate 50 uM
  substrate titration source data, rate per replicate: 9
PTPσ; 25M DJ001, Substrate 50 uM, 25 µM DJ001
  substrate titration source data, rate per replicate: 12.3
PTPσ; 25M DJ001, Substrate 100 uM
  substrate titration source data, rate per replicate: 13.4
PTPσ; 25M DJ001, Substrate 100 uM, 25 µM DJ001
  substrate titration source data, rate per replicate: 16.2
PTPσ; 25M DJ001, Substrate 200 uM
  substrate titration source data, rate per replicate: 26.7
PTPσ; 25M DJ001, Substrate 200 uM, 25 µM DJ001
  substrate titration source data, rate per replicate: 26
PTPσ; 25M DJ001, Substrate 400 uM
  substrate titration source data, rate per replicate: 42.9
PTPσ; 25M DJ001, Substrate 400 uM, 25 µM DJ001
  substrate titration source data, rate per replicate: 40.9
PTPσ; 25M DJ001, Substrate 800 uM
  substrate titration source data, rate per replicate: 54.8
PTPσ; 25M DJ001, Substrate 800 uM, 25 µM DJ001
  substrate titration source data, rate per replicate: 50.4
PTPσ; 25M DJ001, Substrate 1200 uM
  substrate titration source data, rate per replicate: 57.8
PTPσ; 25M DJ001, Substrate 1200 uM, 25 µM DJ001
  substrate titration source data, rate per replicate: 55.4
PTPσ; 50M DJ001, Substrate 50 uM, 50 µM DJ001
  substrate titration source data, rate per replicate: 7.7 and 8
PTPσ; 50M DJ001, Substrate 100 uM, 50 µM DJ001
  substrate titration source data, rate per replicate: 9.1 and 9.9
PTPσ; 50M DJ001, Substrate 200 uM, 50 µM DJ001
  substrate titration source data, rate per replicate: 14.1 and 15.3
PTPσ; 50M DJ001, Substrate 400 uM, 50 µM DJ001
  substrate titration source data, rate per replicate: 23.2 and 23.4
PTPσ; 50M DJ001, Substrate 800 uM, 50 µM DJ001
  substrate titration source data, rate per replicate: 28.7 and 27
PTPσ; 50M DJ001, Substrate 1200 uM, 50 µM DJ001
  substrate titration source data, rate per replicate: 34.7 and 35
PTPσ; 100M DJ001, Substrate 50 uM
  substrate titration source data, rate per replicate: 7.7 and 7.4
PTPσ; 100M DJ001, Substrate 100 uM
  substrate titration source data, rate per replicate: 7.7
PTPσ; 100M DJ001, Substrate 200 uM
  substrate titration source data, rate per replicate: 8.9
PTPσ; 100M DJ001, Substrate 400 uM
  substrate titration source data, rate per replicate: 13.4 and 13.9
PTPσ; 100M DJ001, Substrate 800 uM
  substrate titration source data, rate per replicate: 17.3 and 16.7
PTPσ; 100M DJ001, Substrate 1200 uM
  substrate titration source data, rate per replicate: 25.5 and 23.8
PTPσ; substrate titration, inhibits Vmax, constant Km
  mechanism of PTPσ inhibition: non-competitive inhibitor
p-PAK1 in BM KSL cells; BM KSL cells, 1 μg/mL DJ001
  phosphorylation of PAK1: increased phosphorylation
p-PAK1 in BM KSL cells; individual replicates
  Figure 3d: p-PAK1 in BM KSL cells: 50.24 and 54.07 and 49.55 and 58.02 and 54.95
